Data: EP4623912A1, “A METHOD FOR DEFATTENING A STEATOTIC LIVER EX VIVO” (ETH Zurich, priority 2024, dated 2025)
Entries after “also recorded” stand apart in the source; their conditions may differ.

Legend:
male C57BL/6N mice = test: Murine NASH model (HFD, glucose/fructose water, thermoneutral housing); type: in vivo, mouse
Method: To model NASH in murine liver, male C57BL/6N mice were challenged with HFD for 24 weeks in conjunction with 18.9 g/L glucose&23.1 g/L fructose containing drinking water under thermoneutral housing condition (29°C) for 12 weeks before the administration of UCB9608 through HFD (15 mg/kg) for another 12 weeks. Then the mice were analysed in EcoMRI for body composition measurement before 6 hours fasting, followed by dissection to harvest liver and sample blood.
Total RNA was extracted from adipose depots, liver or in vitro cell cultures via Trizol reagent (Invitrogen) according to the manufacturer's instructions. Genomic DNA was removed from the crude RNA samples by DNase treatment (NEB BioLabs). For individual sample, 1 µg of total RNA was used to convert into cDNA library by using the High-Capacity cDNA Reverse transcription kit (Applied Biosystems, 4368813). Quantitative PCR was performed using KAPA SYBR FAST Universal kit (Roche, KK4618) on ViiA7 (Applied Biosystems) and the relative transcript levels were normalized to […] expression via ΔΔCt method. Table 2: Sequences of qPCR primers used in this study.
Plasma collected from mice under different conditions was used to determine levels of lipolysis and liver injury. FFA levels were measured via NEFA assay kit (Wako NEFA kit). TG levels were determined via TG assay kit (Roche Trig/GB reagent). ALT (MAK052, Sigma) and AST (MAK055, Sigma) assay kits were used to determine ALT and AST activity according to the manufacturer's instructions. The absorbance was monitored using Synergy Gen5 Platereader.
Weight of liver pieces (50-100 mg) was recorded before homogenization by 1 mL isopropanol per 50 mg tissue. The homogenates were incubated at room temperature with rotating before spinning down to remove debris at 2000×g for 10 min and collect supernatant. The TG levels were determined (Roche Trig/GB reagent) in Synergy Gen5 Platereader and normalized to the weight of liver pieces.
For NASH cohort, livers were dissected and fixed with 4% PFA in PBS for 24 h at 4°C. The samples were sent to the University of Zurich for histologic analyses. Briefly, liver tissues were dehydrated and embedded in paraffin and underwent section at 3 µm. The slides were stained with hematoxylin and eosin (H&E) and Gomori Green Trichrome directly or stained with anti-cleaved Caspase 3 after antigen retrieval. Afterwards, the images were captured by digital slide scanners and the grade of steatosis, ballooning, inflammation and fibrosis were quantified via the NASH Clinical Research Network Scoring System (Kleiner,D.E. et al. Hepatology 41, (2005)). To perform ORO staining, the fixed samples were sectioned, and the slides were stained via Oil Red O solution, followed by counter-staining with eosin. The images were acquired by digital slide scanners.

ATGL = ATGL response to glucose deprivation after UCB9608-mediated depletion of Golgi Ptdlns4P; type: cell-based; conditions: Golgi Ptdlns4P depleted by UCB9608
[1] = NASH mice, UCB9608 through HFD (15 mg/kg) 12 weeks
[2] = NASH mice, liver histology, UCB9608 12 weeks vs vehicle

## COc1ccc(NC(=O)N2CCN(c3nc(N)nc4c3cnn4C)[C@@H](C)C2)c(C)c1 [UCB9608]
Male C57BL/6N mice; NASH livers, qPCR (Fig. 7j)
  inflammation levels by transcript levels of inflammatory markers: mitigation
Male C57BL/6N mice; NASH livers, qPCR (Fig. 7k), vs vehicle
  degree of fibrosis-related marker expression: substantially ameliorated
Male C57BL/6N mice; [1]
  ALT activity in the plasma: reduction
  AST activity in the plasma: reduction
  TG levels in the plasma: reduction; also recorded: reduced
  fatty acid oxidation (liver): significant elevation
  hepatic TG levels: reduced
  liver mass/body weight ratio: reduced
Male C57BL/6N mice; NASH mice, UCB9608 through HFD (15 mg/kg) 12 weeks, EcoMRI
  fat mass: significant loss
Male C57BL/6N mice; NASH mice, UCB9608 through HFD (15 mg/kg) 12 weeks, vs vehicle
  body weight: significant loss
Male C57BL/6N mice; [2]
  NAFLD activity score: significantly lower
  fibrosis grade: significantly lower
  inflammation levels: significantly lower
  liver injury: significantly lower
  steatosis grade: significantly lower
ATGL
  ATGL response to glucose deprivation: loss of ATGL regulation
